This is an account of results in paper PMC6271756, “Synthesis of Caffeic Acid Amides Bearing 2,3,4,5-Tetra-hydrobenzo[b][1,4]dioxocine Moieties and Their Biological Evaluation as Antitumor Agents” (Molecules, 2014).

Molecules are shown by their SMILES.

For one data set, the system named is HepG2 cell. Description: Apoptosis assay by flow cytometry (AnnexinV-FITC/PI). It is filed as cell-based. The method, then:
Approximately 10^5 cells/well were plated in a 24 well plate and allowed to adhere. After 24 h, the medium was replaced with fresh culture medium containing compounds D9 at final concentrations of 4, 6, 8 μM. Nontreated wells received an equivalent volume of ethanol (<0.1%). They were trypsinized, washed in PBS and centrifuged at 2,000 rpm for 5 min. The pellet was then resuspended in 500 μL of staining solution (containing 5 μL AnnexinV-FITC and 5 μL PI in Binding Buffer), mixed gently and incubated for 15 min at room temperature (15–25 °C) in dark. The sample were then read in FACScalibur flow cytometer (BD Company, New Jersey, USA) at 488 nm excitation.
In general terms: A flow cytometer gives signals particle by particle.

A further data set concerns HepG2 cell migration. Description: Cell migration assay (Trans well). The class given is cell-based. The settings on record: 0.06, 0.08, 0.1 μM, 24 h. The method, then: A cell migration assay was conducted as described previously (Qian et al.), with a slight modification. In brief, the cells were serum-starved overnight, and the transwells were coated with […] (ECL) cell attachment matrix (Upstate Biotechnology, Lake Placid, NY, USA) at 20 μg/mL. The top chambers of transwells were loaded with 0.2 mL of cells (4 × 10^5 cells/mL) in serum-free media, and the bottom chambers were loaded with 0.6 mL of MEM media containing 0.5% FBS. The cells were incubated in the transwells at 37 °C in 5% CO2 for 24 h. A microplate reader was used to measure the optical density of the eluted solutions in order to determine their migration values. Mean values were obtained from three individual experiments.

The next data set has as its target T1, EGFR (Homo sapiens, UniProt P00533).
T1 construct: EGFR cytoplasmic domain (EGFR-CD, amino acids 645–1186); (His)6 (N); made in house; host or cells: Sf-9 insect cells (baculovirus)
Description: EGFR kinase autophosphorylation assay (DELFIA/Time Resolved Fluorometry). The class given is biochemical. The settings on record: enzyme incubated with compounds for 70 min. The procedure:
A sequence that encodes (His)6 was located at the 5' upstream to the EGFR sequences. Sf-9 cells were infected for 3 days for protein expression. Sf-9 cell pellets were solubilized at 0 °C in a buffer at pH 7.4 containing 50 mM HEPES, 10 mM NaCl, 1% Triton, 10 μM ammonium molybdate, 100 μM sodium vanadate, 10 μg/mL aprotinin, 10 μg/mL leupeptin, 10 μg/mL pepstatin, and 16 μg/mL benzamidine HCl for 20 min followed by 20 min centrifugation. Crude extract supernatant was passed through an equilibrated Ni-NTA superflow packed column and washed with 10 mM and then 100 mM imidazole to remove nonspecifically bound material. Histidine tagged proteins were eluted with 250 and 500 mM imidazole and dialyzed against 50 mM NaCl, 20 mM HEPES, 10% glycerol, and 1 μg/mL each of aprotinin, leupeptin, and pepstatin for 2 h. The entire purification procedure was performed at 4 °C or on ice.
EGFR kinase assays was set up to assess the level of autophosphorylation based on DELFIA/Time Resolved Fluorometry. […] In each well, 10 μL compound was incubated with 10 μL (5 ng for EGFR) recombinant enzyme (1:80 dilution in 100 mM HEPES) for 10 min at room temperature. Then, 10 μL of 5× buffer (containing 20 mM HEPES, 2 mM MnCl2, 100 μM Na3VO4, and 1 mM DTT) and 20 μL of 0.1 mM ATP-50 mM MgCl2 were added for 1 h. Positive and negative controls were included in each plate by incubation of enzyme with or without ATP-MgCl2.
At the end of incubation, liquid was aspirated, and plates were washed three times with wash buffer. A 75 μL (400 ng) sample of europium labeled anti-phosphotyrosine antibody was added to each well for another 1 h of incubation. After washing, enhancement solution was added and the signal was detected by Victor (Wallac Inc., Männedorf, Switzerland) with excitation at 340 nm and emission at 615 nm. The percentage of autophosphorylation inhibition by the compounds was calculated using the following equation: 100% − [[…]] (1)
The IC50 was obtained from curves of percentage inhibition with eight concentrations of compound.

A further data set relates to Hela. Description: Cell proliferation assay (CCK8), Hela. The class given is cell-based. As to conditions: Homo sapiens, cells incubated with compounds for 24 h. The procedure:
(§1) CCK8 is much more convenient and helpful than MTT for analyzing cell proliferation, because it can be reduced to soluble formazan by dehydrogenase in mitochondria and has little toxicity to cells. Cell proliferation was determined using CCK8 dye (Beyotime Inst. Biotech., Nanjing, China) according to the manufacturer's instructions. Briefly, 1–5 × 10^3 cells per well were seeded on a 96-well plate, and grown at 37 °C for 12 h. Subsequently, cells were treated with all synthesized compounds at increasing concentrations in the presence of 10% FBS for 24 h. After addition of 10 μL CCK8 dyeto each well, cells were incubated at 37 °C for 2 h and plates were read on a Victor-V multilabel counter (Perkin-Elmer, Männedorf, Switzerland) using the default […]. Percent inhibition or IC50 values of compounds were calculated by comparison with DMSO-treated control wells.

In the next data set the test system is HepG2. Description: Cell proliferation assay (CCK8), HepG2. It is filed as cell-based. The procedure: as §1
In a further data set the test system is A431. Description: Cell proliferation assay (CCK8), A431. The class given is cell-based. The settings on record: Homo sapiens, A-431, cells incubated with compounds for 24 h. The method, then: as §1

T1 sequence (P00533 669-1210): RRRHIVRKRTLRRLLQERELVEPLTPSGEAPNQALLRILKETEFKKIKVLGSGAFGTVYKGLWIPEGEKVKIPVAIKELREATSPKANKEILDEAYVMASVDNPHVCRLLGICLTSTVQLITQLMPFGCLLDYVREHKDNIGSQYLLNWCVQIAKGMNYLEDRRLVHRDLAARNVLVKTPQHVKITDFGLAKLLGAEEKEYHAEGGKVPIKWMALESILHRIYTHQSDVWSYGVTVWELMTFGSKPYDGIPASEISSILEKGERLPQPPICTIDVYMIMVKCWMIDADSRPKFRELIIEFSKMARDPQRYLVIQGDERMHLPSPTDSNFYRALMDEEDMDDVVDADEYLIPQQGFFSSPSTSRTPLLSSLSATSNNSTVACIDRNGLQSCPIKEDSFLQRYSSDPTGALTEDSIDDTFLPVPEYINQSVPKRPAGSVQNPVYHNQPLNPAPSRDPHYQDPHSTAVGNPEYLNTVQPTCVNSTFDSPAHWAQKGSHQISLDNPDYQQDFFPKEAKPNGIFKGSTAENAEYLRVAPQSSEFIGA

The term melting point denotes the temperature, or range, at which the solid turns liquid. One may read the IC50 as the concentration needed to halve the response being measured. `CCOc1ccc(NC(=O)/C=C/c2ccc3c(c2)OCCCCO3)cc1` [Compound D9, (E)-N-(4-ethoxyphenyl)-3-(2,3,4,5-tetrahydrobenzo[b][1,4]dioxocin-8-yl)acrylamide]: the melting point lay in the range of 137 to 139 °C. For the same compound, the “percentage of cell apoptosis” value in the data set with HepG2 cell (HepG2, 4 μM) stood at 17.99%. In addition, in the data set with HepG2 cell (HepG2, 6 μM), the “percentage of cell apoptosis” value turned out to be 26.83%. Moreover, in the data set on HepG2 cell (HepG2, 8 μM), the “percentage of cell apoptosis” value is 41.1%. The “amount of migrating HepG2 cells vs control” value in the data set with HepG2 cell migration is on record as “less than control group”. In addition, at EGFR, the IC50 came to 0.36 µM. Also, in the data set on Hela, the IC50 was determined as 6.75 µM. Besides, the IC50 in the data set on HepG2 (Homo sapiens, HepG2, cells incubated with compounds for 24 h, CCK8) was determined as 0.79 µM. Also, the “effect on HepG2 cell survival ratios (CCK8 assay)” value with HepG2 (concentrations lower than 0.1 μM) was “no effect”. The IC50 with A431 was determined as 7.03 µM.
